Species: Rattus norvegicus
Test: DrugMatrix - Regimen: Daily Repeat
Format: toxicity, organism-based, Sprague-Dawley
Design: regimen Daily Repeat, gender Male, age 6-8 weeks
Conditions: in vivo, po, route oral GAVAGE, […]; for ABSOLUTE BASOPHIL / ABSOLUTE EOSINOPHIL / ABSOLUTE LYMPHOCYTE / ABSOLUTE MONOCYTE / ABSOLUTE SEGMENTED NEUTROPHIL / BASOPHIL / EOSINOPHIL / ERYTHROCYTE COUNT / HEMATOCRIT / HEMOGLOBIN / LEUKOCYTE COUNT / LYMPHOCYTE / MEAN CORPUSCULAR HEMOGLOBIN / MEAN CORPUSCULAR HEMOGLOBIN CONCENTRATION / MEAN CORPUSCULAR VOLUME / MONOCYTE / NEUTROPHIL / NUCLEATED RED BLOOD CELLS / PLATELET COUNT: tissue Blood; for ALANINE AMINOTRANSFERASE / ALBUMIN / ALKALINE PHOSPHATASE / ASPARTATE AMINOTRANSFERASE / BLOOD UREA NITROGEN / CARBON DIOXIDE / CHLORIDE / CHOLESTEROL / CREATINE PHOSPHOKINASE / CREATININE / GLUCOSE / LACTATE DEHYDROGENASE / LIPASE / PHOSPHORUS / POTASSIUM / SODIUM / TOTAL BILIRUBIN / TOTAL PROTEIN / URIC ACID: tissue Plasma
[1] = 0 mg/kg, 72 h, dose level Control, time 3 day
[2] = 0 mg/kg, 120 h, dose level Control, time 5 day
[3] = 100 mg/kg, 72 h, dose level Low, time 3 day

## CC(C)(Oc1ccc(Cl)cc1)C(=O)O [CLOFIBRIC ACID]
[1]
  ABSOLUTE BASOPHIL: 0 CELLS/uL
  ABSOLUTE EOSINOPHIL: 0 CELLS/uL
  ABSOLUTE LYMPHOCYTE: 14687.67 CELLS/uL
  ABSOLUTE MONOCYTE: 164 CELLS/uL
  ABSOLUTE SEGMENTED NEUTROPHIL: 1748.33 CELLS/uL
  BASOPHIL: 0%
  EOSINOPHIL: 0%
  ERYTHROCYTE COUNT: 5.51 x10E6/uL
  HEMATOCRIT: 33.68%
  HEMOGLOBIN: 13.4 G/DL
  LEUKOCYTE COUNT: 16.6 x10E3/uL
  LYMPHOCYTE: 88.83%
  MEAN CORPUSCULAR HEMOGLOBIN: 24.47 pg
  MEAN CORPUSCULAR HEMOGLOBIN CONCENTRATION: 39.82 G/DL
  MEAN CORPUSCULAR VOLUME: 61.23 fL
  MONOCYTE: 0.83%
  NEUTROPHIL: 10.33%
  NUCLEATED RED BLOOD CELLS: 0 /100WBC
  PLATELET COUNT: 1329.67 x10E3/uL
  ALANINE AMINOTRANSFERASE: 61.33 u/L
  ALBUMIN: 4.18 G/DL
  ALKALINE PHOSPHATASE: 332.5 u/L
  ASPARTATE AMINOTRANSFERASE: 98.33 u/L
  BLOOD UREA NITROGEN: 15.83 mg/dL
  CARBON DIOXIDE: 27.83 mmol/L
  CHLORIDE: 100 MEQ/L
  CHOLESTEROL: 76.17 mg/dL
  CREATINE PHOSPHOKINASE: 729.17 u/L
  CREATININE: 0.21 mg/dL
  GLUCOSE: 151.83 mg/dL
  LACTATE DEHYDROGENASE: 484.67 u/L
  LIPASE: 10 u/L
  PHOSPHORUS: 11.3 mg/dL
  POTASSIUM: 6.1 MEQ/L
  SODIUM: 142.9 MEQ/L
  TOTAL BILIRUBIN: 0.23 mg/dL
  TOTAL PROTEIN: 5.68 G/DL
  URIC ACID: 1.75 mg/dL
[2]
  ABSOLUTE BASOPHIL: 0 CELLS/uL
  ABSOLUTE EOSINOPHIL: 58.67 CELLS/uL
  ABSOLUTE LYMPHOCYTE: 15950.83 CELLS/uL
  ABSOLUTE MONOCYTE: 172.5 CELLS/uL
  ABSOLUTE SEGMENTED NEUTROPHIL: 2551.33 CELLS/uL
  BASOPHIL: 0%
  EOSINOPHIL: 0.33%
  ERYTHROCYTE COUNT: 5.5 x10E6/uL
  HEMATOCRIT: 34.05%
  HEMOGLOBIN: 13.42 G/DL
  LEUKOCYTE COUNT: 18.73 x10E3/uL
  LYMPHOCYTE: 84.5%
  MEAN CORPUSCULAR HEMOGLOBIN: 24.42 pg
  MEAN CORPUSCULAR HEMOGLOBIN CONCENTRATION: 39.42 G/DL
  MEAN CORPUSCULAR VOLUME: 61.97 fL
  MONOCYTE: 1%
  NEUTROPHIL: 14.17%
  NUCLEATED RED BLOOD CELLS: 0.33 /100WBC
  PLATELET COUNT: 1143.17 x10E3/uL
  ALANINE AMINOTRANSFERASE: 57 u/L
  ALBUMIN: 4.17 G/DL
  ALKALINE PHOSPHATASE: 347.33 u/L
  ASPARTATE AMINOTRANSFERASE: 93.67 u/L
  BLOOD UREA NITROGEN: 15.67 mg/dL
  CARBON DIOXIDE: 27.17 mmol/L
  CHLORIDE: 104.33 MEQ/L
  CHOLESTEROL: 69.5 mg/dL
  CREATINE PHOSPHOKINASE: 317.17 u/L
  CREATININE: 0.2 mg/dL
  GLUCOSE: 162.33 mg/dL
  LACTATE DEHYDROGENASE: 408.67 u/L
  LIPASE: 10.17 u/L
  PHOSPHORUS: 11.08 mg/dL
  POTASSIUM: 6.36 MEQ/L
  SODIUM: 146.07 MEQ/L
  TOTAL BILIRUBIN: 0.22 mg/dL
  TOTAL PROTEIN: 5.92 G/DL
  URIC ACID: 1.47 mg/dL
[3]
  ABSOLUTE BASOPHIL: 0 CELLS/uL
  ABSOLUTE EOSINOPHIL: 83.33 CELLS/uL
  ABSOLUTE LYMPHOCYTE: 12714.67 CELLS/uL
  ABSOLUTE MONOCYTE: 127.67 CELLS/uL
  ABSOLUTE SEGMENTED NEUTROPHIL: 1507.67 CELLS/uL
  BASOPHIL: 0%
  EOSINOPHIL: 0.67%
  ERYTHROCYTE COUNT: 5.9 x10E6/uL
  HEMATOCRIT: 36.47%
  HEMOGLOBIN: 14.53 G/DL
  LEUKOCYTE COUNT: 14.43 x10E3/uL
  LYMPHOCYTE: 88%
  MEAN CORPUSCULAR HEMOGLOBIN: 24.67 pg
  MEAN CORPUSCULAR HEMOGLOBIN CONCENTRATION: 39.87 G/DL
  MEAN CORPUSCULAR VOLUME: 61.83 fL
  MONOCYTE: 1%
  NEUTROPHIL: 10.33%
  NUCLEATED RED BLOOD CELLS: 0 /100WBC
  PLATELET COUNT: 1176.67 x10E3/uL
  ALANINE AMINOTRANSFERASE: 51 u/L
  ALBUMIN: 4.33 G/DL
  ALKALINE PHOSPHATASE: 364.33 u/L
  ASPARTATE AMINOTRANSFERASE: 99.67 u/L
  BLOOD UREA NITROGEN: 17 mg/dL
  CARBON DIOXIDE: 27 mmol/L
  CHLORIDE: 96 MEQ/L
  CHOLESTEROL: 62 mg/dL
  CREATINE PHOSPHOKINASE: 636.33 u/L
  CREATININE: 0.34 mg/dL
  GLUCOSE: 180.67 mg/dL
  LACTATE DEHYDROGENASE: 303.67 u/L
  LIPASE: 9.33 u/L
  PHOSPHORUS: 11.9 mg/dL
  POTASSIUM: 5.92 MEQ/L
  SODIUM: 141 MEQ/L
  TOTAL BILIRUBIN: 0.1 mg/dL
  TOTAL PROTEIN: 5.8 G/DL
  URIC ACID: 2.07 mg/dL

— ChEMBL document CHEMBL3885881, “DrugMatrix”
